Source: patent US20230140972A1, “GLYCEROL GLUCOSIDE-BASED COMPOUND AND COMPOSITION COMPRISING SAME FOR ULTRAVIOLET LIGHT SHIELD OR ANTI-INFLAMMATION” (ATHENA CO., LTD., priority 2020, published 2023)

Key:
[1] = tested on: total NO production in LPS-treated RAW264.7 cells; assay: Nitric oxide (total NO) production and inhibition, enzymatic method; assay type: cell-based, mouse; details: LPS 1 μg/mL; for Total NO production: 24 h
Description: An NO assay was performed to evaluate an amount of nitric oxide (total NO) production and a production inhibition rate of the glycerol glucoside-based compound sample (EPS-S).
Specifically, subcultured RAW264.7 cells were aliquoted into a 96-well plate at 1×10^5 cells/well, and cultured at 37° C. in an incubator containing 5% carbon dioxide for 24 hours, and then a culture media was replaced with a serum-free media. Then, each sample is diluted by concentration and treated onto the cells with LPS (final 1 μg/mL). After culturing for 24 hours, a cell culture medium was treated with nitrate reductase, enzyme cofactor and enhancer to react. A Griess reagent was added and an absorbance was measured at 540 nm with a microplate reader. A total NO production was obtained by substituting the absorbance into a standard nitric oxide calibration curve, and a total NO production inhibition rate (%) was analyzed through Equation 2 and expressed as a mean±standard deviation. Dexamethasone was used as a positive control group.

[2] = tested on: NO2 production in LPS-treated RAW264.7 cells; assay: Nitric oxide (NO2) production amount and inhibition, non-enzymatic method; assay type: cell-based, mouse; details: LPS 1 μg/mL, 24 h
Description: An NO assay was performed to evaluate an amount of nitric oxide (NO2) production and a production inhibition ability of the glycerol glucoside-based compound sample (EPS-S).
Specifically, subcultured RAW264.7 cells were aliquoted into a 96-well plate at 1×10^5 cells/well, and cultured at 37° C. in an incubator containing 5% carbon dioxide for 24 hours, and then a culture media was replaced with a serum-free media. […] Dexamethasone was used as a positive control group.

[3] = tested on: IL-6 production in RAW264.7 cells; assay: IL-6 production inhibition using ELISA assay; assay type: cell-based, mouse; details: LPS 10 ng/mL, 24 h
Description: An IL-6 ELISA assay was used to evaluate an IL-6 production inhibition ability of the sample in RAW264.7 cells.
Specifically, subcultured RAW264.7 cells were aliquoted into a 6-well dish at 1.5×10^6 cells/well and cultured for 24 hours at 37° C. in an incubator containing 5% carbon dioxide, and then a culture media was replaced with a serum-free media. Then, each sample was diluted by concentration and treated onto the cells with LPS (final 10 ng/mL). After culturing for 24 hours, the cell culture medium was recovered and an IL-6 ELISA assay was performed.
50 μL of an assay diluent was put into each well, and 50 μL of each of a standard solution and a cell culture solution were added to each well and reacted at room temperature for 2 hours. Thereafter, the reaction solution was removed from each well, washed with a wash buffer, 100 μL of IL-6 conjugate was added, and after reaction at room temperature for 2 hours, the reaction solution was removed from each well and washing is performed with a wash buffer.
Next, 100 μL of a substrate solution was added and a reaction under light blocking was carried out at room temperature, and then 100 μL of a stop solution was added, and an absorbance was measured at 450 and 570 nm. Dexamethasone was used as a positive control group. After the test was conducted once, an IL-6 production amount was calculated by substituting the absorbance value into a IL-6 standard solution calibration curve, and then the IL-6 production inhibition rate (%) was calculated using Equation 4 below, and expressed as the mean±standard deviation of the experiment.

[4] = tested on: COX-2 mRNA in RAW264.7 cells; assay: COX-2 mRNA expression analysis (RT-qPCR); assay type: cell-based, mouse; details: LPS 100 ng/mL, 24 h
Description: An RT-qPCR was performed to evaluate an mRNA expression inhibition ability of COX-2 and iNOS of the glycerol glucoside-based compound sample (EPS-S).
Specifically, subcultured RAW264.7 cells were aliquoted into a 60 mm dish at 1.5×10^6 cells, and cultured at 37° C. in an incubator containing 5% carbon dioxide for 24 hours, and then a culture media was replaced with a serum-free media. Then, each sample was diluted by concentration and treated onto the cells with LPS (final 100 ng/mL). After culturing for 24 hours, cells were recovered, RNA was extracted, and cDNA was synthesized. For cDNA, qPCR was performed after mixing Real-time PCR Master Mix with TaqMan probes of each of COX-2 and iNOS. Dexamethasone was used as a positive control group. The test was conducted once, and the mRNA expression inhibition rate was obtained by analyzing the result by the ΔΔCt method, and then substituted into Equation 6 below to obtain the mRNA expression inhibition rate of COX-2 and iNOS of the treated sample group compared to the negative control group.

[5] = tested on: TNF-α production in RAW264.7 cells; assay: TNF-α production inhibition using ELISA assay; assay type: cell-based; details: Mus musculus, LPS 10 ng/mL, 24 h
Description: A TNF-α production inhibition ability of the sample in RAW264.7 cells was evaluated using a TNF-α ELISA assay.
Specifically, subcultured RAW264.7 cells were aliquoted into a 6-well dish at 1.5×10^6 cells/well, and cultured for 24 hours at 37° C. in an incubator containing 5% carbon dioxide, and then a culture media was replaced with a serum-free media. Then, each sample was diluted by concentration and treated onto the cells with LPS (final 10 ng/mL). After culturing for 24 hours, the cell culture medium was recovered and the TNF-α ELISA assay was performed.
50 μL of an assay diluent was put into each well, and 50 μL of each of a standard solution and a cell culture solution were added to each well and reacted at room temperature for 2 hours. Thereafter, the reaction solution was removed from each well, washed with a wash buffer, 100 μL of TNF-α conjugate was added, and after reacting at room temperature for 2 hours, the reaction solution was removed from each well and washing is performed with a wash buffer.
Thereafter, 100 μL of a substrate solution was added and a reaction under light blocking was carried out at room temperature, and then 100 μL of a stop solution was added, and an absorbance was measured at 450 and 570 nm. Dexamethasone was used as a positive control group. After the test was conducted once, a TNF-α synthesis amount was calculated by substituting the absorbance value into a TNF-α standard solution calibration curve, and then the TNF-α production inhibition rate (%) was calculated using Equation 3 below, and expressed as the mean±standard deviation of the experiment.

C[C@@H]1C[C@H]2[C@@H]3CCC4=CC(=O)C=C[C@]4(C)[C@@]3(F)[C@@H](O)C[C@]2(C)[C@@]1(O)C(=O)CO [Dexamethasone]
Total NO production ([1]; 10 μM): 41.15 ± 0.43 µM
Total NO production ([1]; 10 μM, listed as dexamethasone): 41.15 µM
Total NO production ([1]; 20 μM): 38.84 ± 1.24 µM
Total NO production ([1]; 20 μM, listed as dexamethasone): 38.84 µM
Total NO production ([1]; 80 μM): 37.82 ± 0.75 µM
Total NO production ([1]; 80 μM, listed as dexamethasone): 37.82 µM
inhibition at 10 µM ([1]; Mus musculus, RAW264.7, 24 h, 10 μM, read-out: Total NO production inhibition rate): 42.8%
inhibition at 20 µM ([1]; Mus musculus, RAW264.7, 24 h, 20 μM, read-out: Total NO production inhibition rate): 48.7%
inhibition at 80 µM ([1]; Mus musculus, RAW264.7, 24 h, 80 μM, read-out: Total NO production inhibition rate): 51.4%
NO2 production amount ([2]; 10 μM): 21.29 ± 0.59 µM
NO2 production amount ([2]; 10 μM, listed as dexamethasone): 21.29 µM
NO2 production amount ([2]; 20 μM): 20.79 ± 0.12 µM
NO2 production amount ([2]; 20 μM, listed as dexamethasone): 20.79 µM
NO2 production amount ([2]; 80 μM): 19.62 ± 0.50 µM
NO2 production amount ([2]; 80 μM, listed as dexamethasone): 19.62 µM
inhibition at 10 µM ([2]; Mus musculus, RAW264.7, 10 μM, read-out: NO2 production inhibition rate): 21.5%
inhibition at 20 µM ([2]; Mus musculus, RAW264.7, 20 μM, read-out: NO2 production inhibition rate): 24.7%
inhibition at 80 µM ([2]; Mus musculus, RAW264.7, 80 μM, read-out: NO2 production inhibition rate): 32.3%
IL-6 production inhibition ability ([3]; 10 Mm (10 μM)): 55.97%
inhibition at 1 µM ([3]; Mus musculus, RAW264.7, 1 μM, read-out: IL-6 production inhibition ability): 12.7%
inhibition at 5 µM ([3]; Mus musculus, RAW264.7, 5 μM, read-out: IL-6 production inhibition ability): 48.4%
inhibition at 20 µM ([3]; Mus musculus, RAW264.7, 20 μM, read-out: IL-6 production inhibition ability): 63.3%
inhibition at 50 µM ([3]; Mus musculus, RAW264.7, 50 μM (text b146), read-out: IL-6 production inhibition rate): 88.7%
COX-2 mRNA expression inhibition rate ([4]; 1 μM): 22.64 ± 1.27%
COX-2 mRNA expression inhibition rate ([4]; 1 μM, listed as dexamethasone): 22.64%
COX-2 mRNA expression inhibition rate ([4]; 5 μM): 71.72 ± 0.69%
COX-2 mRNA expression inhibition rate ([4]; 5 μM, listed as dexamethasone): 71.72%
COX-2 mRNA expression inhibition rate ([4]; 20 μM): 81.78 ± 0.60%
COX-2 mRNA expression inhibition rate ([4]; 20 μM, listed as dexamethasone): 81.78%
COX-2 mRNA expression inhibition rate ([4]; 80 μM): 84.23 ± 0.41%
COX-2 mRNA expression inhibition rate ([4]; 80 μM, listed as dexamethasone): 84.23%
COX-2 mRNA expression inhibition rate ([4]; 10 Mm (table head; text 10 μM)): 76.82 ± 1.73%
COX-2 mRNA expression inhibition rate ([4]; 10 Mm (table head; text 10 μM), listed as dexamethasone): 76.82%
inhibition at 1 µM ([5]; 1 μM, read-out: TNF-α production inhibition ability): 13.8%
inhibition at 5 µM ([5]; 5 μM, read-out: TNF-α production inhibition ability): 34.7%
inhibition at 10 µM ([5]; 10 μM, read-out: TNF-α production inhibition ability): 46.5%
inhibition at 20 µM ([5]; 20 μM, read-out: TNF-α production inhibition ability): 52.1%
inhibition at 50 µM ([5]; 50 μM (text b137), read-out: TNF-α production inhibition rate): 65%
inhibition at 80 µM ([5]; 80 μM, read-out: TNF-α production inhibition ability): 65.05 ± 0.6%
